Source: the supplement of paper PMC10307832

What was measured:
Experiment in all cases: relative viability (nuclei count vs DMSO), 5 days (fraction); higher = more cells survive
[1] = compound: C1=CC=C(C(=C1)C2=CC=C(C=C2)C3=CSC4=C3C(=C(C(=O)N4)C#N)O)O + CCNC(=O)c1noc(-c2cc(C(C)C)c(O)cc2O)c1-c1ccc(CN2CCOCC2)cc1 [Luminespib] (partner 0.01 µM)
Summary of the method: (§1)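 Relative viability is defined as nuclei in treated wells over nuclei in vehicle wells. Duplicate plates were run and medians reported. Lung cancer cell lines in 1536-well plates were dosed by pin tool one day after seeding, with one drug or with a fixed anchor-drug dose plus five library-drug doses (not always all listed) in √10 steps, and nuclei were counted after 5 days.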

[2] = compound: C1=CC=C(C(=C1)C2=CC=C(C=C2)C3=CSC4=C3C(=C(C(=O)N4)C#N)O)O + Nc1nc2[nH]cc(CCc3ccc(C(=O)N[C@@H](CCC(=O)O)C(=O)O)cc3)c2c(=O)[nH]1 [Pemetrexed] (partner 0.2 µM)
Summary of the method: as §1

TGX 221 + Foretinib = compound: CC1=CN2C(=O)C=C(N=C2C(=C1)C(C)NC3=CC=CC=C3)N4CCOCC4 [TGX 221] + COc1cc2c(Oc3ccc(NC(=O)C4(C(=O)Nc5ccc(F)cc5)CC4)cc3F)ccnc2cc1OCCCN1CCOCC1 [Foretinib] (partner 0.25 µM)
Summary of the method: as §1

Ricolinostat + OSI-027 = compound: O=C(CCCCCCNC(=O)c1cnc(N(c2ccccc2)c2ccccc2)nc1)NO [Ricolinostat] + COc1cccc2cc(-c3nc([C@H]4CC[C@H](C(=O)O)CC4)n4ncnc(N)c34)[nH]c12 [OSI-027] (partner 0.5 µM)
Summary of the method: as §1

| Cell Line | relative viability ([1]; first compound 0.08 µM) | relative viability ([1]; first compound 0.253 µM) | relative viability ([1]; first compound 0.8 µM) | relative viability ([1]; first compound 2.53 µM) | relative viability ([1]; first compound 8 µM) | relative viability ([2]; first compound 0.08 µM) | relative viability ([2]; first compound 0.253 µM) | relative viability ([2]; first compound 0.8 µM) | relative viability ([2]; first compound 2.53 µM) | relative viability ([2]; first compound 8 µM) | relative viability (TGX 221 + Foretinib; first compound 0.08 µM) | relative viability (TGX 221 + Foretinib; first compound 0.253 µM) | relative viability (TGX 221 + Foretinib; first compound 0.8 µM) | relative viability (TGX 221 + Foretinib; first compound 2.53 µM) | relative viability (TGX 221 + Foretinib; first compound 8 µM) | relative viability (Ricolinostat + OSI-027; first compound 0.08 µM) | relative viability (Ricolinostat + OSI-027; first compound 0.253 µM) | relative viability (Ricolinostat + OSI-027; first compound 0.8 µM) | relative viability (Ricolinostat + OSI-027; first compound 2.53 µM) |
| --- | --- | --- | --- | --- | --- | --- | --- | --- | --- | --- | --- | --- | --- | --- | --- | --- | --- | --- | --- |
| LXF-289 | 0.764 | 0.651 | 0.8 | 0.73 | 0.632 | 0.818 | 0.871 | 0.909 | 0.926 | 0.89 | 0.974 | 0.986 | 1 | 0.97 | 0.995 | 0.668 | 0.906 | 0.782 | 0.749 |
| NCI-H23 |  | 0.19 | 0.212 | 0.197 | 0.211 | 0.536 | 0.619 | 0.59 | 0.627 | 0.653 | 0.84 | 0.861 | 1.03 | 0.87 | 0.65 | 0.496 | 0.571 | 0.578 | 0.465 |
| NCI-H322M | 0.792 | 0.808 | 0.881 | 0.911 | 0.758 | 0.561 | 0.574 | 0.657 | 0.576 | 0.559 | 0.924 | 0.869 | 1 | 0.763 | 0.765 |  | 0.598 | 0.532 | 0.51 |
| NCI-H358 | 0.304 | 0.331 | 0.293 | 0.603 | 0.221 | 0.156 | 0.188 | 0.175 | 0.162 | 0.176 | 0.702 | 0.664 | 0.711 | 0.597 | 0.587 | 0.584 | 0.802 | 0.734 | 0.954 |
| NCI-H441 | 0.344 | 0.352 | 0.269 | 0.308 | 0.344 | 0.26 | 0.282 | 0.232 | 0.237 | 0.267 | 1.11 | 0.849 | 0.919 | 0.897 | 0.96 |  | 0.725 | 0.595 | 0.59 |
| NCI-H460 | 0.0357 | 0.0366 | 0.0362 | 0.0279 | 0.036 | 0.0846 | 0.0612 | 0.0666 | 0.0616 | 0.0618 | 1.02 | 0.968 | 1.14 | 0.957 | 0.83 | 0.507 | 0.637 | 0.622 | 0.596 |
| NCI-H520 | 0.261 | 0.225 | 0.218 | 0.246 | 0.21 | 0.484 | 0.676 | 0.804 | 0.705 | 0.608 | 0.582 | 0.544 | 0.509 | 0.372 | 0.427 |  | 0.259 | 0.231 | 0.228 |
| NCI-H596 | 0.696 | 0.941 | 0.943 | 1.15 | 0.904 | 0.532 | 0.545 | 0.544 | 0.44 | 0.488 | 0.844 | 0.928 | 0.856 | 0.894 | 0.797 | 0.801 | 0.82 | 0.845 | 0.5 |
| NCI-H647 | 0.183 | 0.0923 | 0.19 | 0.245 | 0.209 |  | 0.18 | 0.16 | 0.17 | 0.189 | 1.05 | 1.04 | 1.21 | 0.762 | 0.931 | 0.546 | 0.508 | 0.489 | 0.543 |
| NCI-H650 | 0.778 | 0.898 | 0.67 | 0.902 | 0.78 | 0.944 | 1.05 | 0.972 | 0.979 | 0.862 | 0.941 | 0.944 | 0.904 | 0.964 | 0.976 | 0.405 | 0.585 | 0.503 | 0.374 |
| NCI-H661 | 0.808 | 0.985 | 0.964 | 0.9 | 0.898 | 0.834 | 1 | 0.933 | 0.937 | 0.85 | 1.03 | 0.987 | 1.02 | 1.09 | 0.82 | 0.501 | 0.669 | 0.712 | 0.652 |
| NCI-H838 | 0.276 | 0.333 | 0.242 | 0.197 | 0.329 | 0.209 | 0.291 | 0.253 | 0.233 | 0.243 | 1.04 | 0.952 | 0.945 | 0.799 | 0.7 | 0.302 | 0.383 | 0.457 | 0.519 |
| NCI-H1355 | 0.542 | 0.681 | 0.727 | 0.61 | 0.533 | 1.01 | 1.12 | 1.13 | 1.04 | 1.11 | 0.994 | 0.814 | 0.984 | 0.849 | 0.788 | 0.296 | 0.477 | 0.404 | 0.299 |
| NCI-H1395 | 0.933 | 0.683 | 0.658 | 0.641 | 0.5 |  | 0.841 | 0.776 | 0.812 | 0.894 | 0.903 | 0.961 | 0.873 | 0.716 | 0.628 |  | 0.651 | 0.613 | 0.663 |
| NCI-H1437 | 1.01 | 1.34 | 1.17 | 1.17 | 0.902 | 0.301 | 0.371 | 0.324 | 0.323 | 0.323 | 1.26 | 1.21 | 1.25 | 1.19 | 1.06 | 0.729 | 0.864 | 0.774 | 0.502 |
| NCI-H1563 | 0.525 | 0.613 | 0.551 | 0.587 | 0.517 | 0.64 | 0.688 | 0.774 | 0.746 | 0.783 | 0.855 | 0.875 | 0.936 | 0.836 | 0.68 | 0.759 | 0.731 | 0.774 | 0.62 |
